One test addresses T1, human recombinant GR (Homo sapiens, UniProt P04150).
T1 construct: purchased PanVera P2812
T1 sequence (P04150 1-777): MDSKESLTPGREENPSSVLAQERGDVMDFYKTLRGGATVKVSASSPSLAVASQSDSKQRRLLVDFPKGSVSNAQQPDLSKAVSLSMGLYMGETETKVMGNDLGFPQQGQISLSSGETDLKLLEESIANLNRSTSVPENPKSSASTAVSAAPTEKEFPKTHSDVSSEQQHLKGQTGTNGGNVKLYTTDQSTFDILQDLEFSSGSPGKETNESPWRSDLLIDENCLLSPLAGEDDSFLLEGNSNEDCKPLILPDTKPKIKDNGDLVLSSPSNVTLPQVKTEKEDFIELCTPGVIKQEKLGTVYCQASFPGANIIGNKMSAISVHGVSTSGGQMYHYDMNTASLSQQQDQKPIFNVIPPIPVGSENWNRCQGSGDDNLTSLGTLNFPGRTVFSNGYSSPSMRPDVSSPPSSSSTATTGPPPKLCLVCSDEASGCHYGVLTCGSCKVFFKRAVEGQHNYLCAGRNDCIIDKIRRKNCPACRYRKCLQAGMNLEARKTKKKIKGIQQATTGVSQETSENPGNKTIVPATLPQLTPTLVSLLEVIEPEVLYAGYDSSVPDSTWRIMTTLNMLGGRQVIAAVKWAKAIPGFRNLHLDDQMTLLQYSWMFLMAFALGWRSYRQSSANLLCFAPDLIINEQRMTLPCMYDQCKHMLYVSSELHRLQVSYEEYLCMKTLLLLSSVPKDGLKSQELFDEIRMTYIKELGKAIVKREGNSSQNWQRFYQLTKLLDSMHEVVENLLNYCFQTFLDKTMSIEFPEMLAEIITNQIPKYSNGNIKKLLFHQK
Put plainly: Human glucocorticoid receptor (GR) fluorescence polarisation (FP) binding assay. Put shortly:
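Competition fluorescence polarisation: 0.5 nM GS Red labelled glucocorticoid and 1 nM recombinant human GR with 8-point half-log compound series, 1% DMSO, 4 h room temperature, potassium phosphate pH 7.4 buffer with molybdate, EDTA, DTT. Affinity derived from the drop in polarisation, normalised to blank wells.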
In general terms: In fluorescence polarisation assays a small probe gives low polarisation when free and higher when bound to something large.

The test system of test [1] is induction of TAT by dexamethasone in HepG2 cells. Put plainly: HepG2 tyrosine aminotransferase (TAT) assay. It is filed as cell-based, human.
Where [2] appears, read: human recombinant GR, fluorescence polarisation binding assay, read-out: GR binding.
The mark [3] stands for this setting: HepG2 cells, challenge of 100 nM dexamethasone, Ki from IC50 by Cheng and Prusoff equation.

The record followed here is US12226412B2, “Heteroaryl-ketone fused azadecalin glucocorticoid receptor modulators” (Corcept Therapeutics, Inc., priority 2012, dated 2025).

Structures are written as SMILES. pKi: −log10 of the molar value. Read-outs that look alike come from different tables or passages of the source.

With `Cn1cc(S(=O)(=O)N2CCC3=Cc4c(cnn4-c4ccc(F)cc4)C[C@]3(C(=O)c3cscn3)C2)cn1` [Example 11CY, (R)-(1-(4-fluorophenyl)-6-((1-methyl-1H-pyrazol-4-yl)sulfonyl)-4,4a,5,6,7,8-hexahydro-1H-pyrazolo[3,4-g]isoquinolin-4a-yl)(thiazol-4-yl)methanone], the results for the pKi (on human recombinant GR (setting [2]); in test [1] (setting [3])) were 9.00 to 9.30 and 7.00 to 7.70, respectively.
Taken in the same sequence, the figures for `CCCn1cc(S(=O)(=O)N2CCC3=Cc4c(cnn4-c4ccc(F)cc4)C[C@]3(C(=O)c3cscn3)C2)cn1` [Example 11CZ, (R)-(1-(4-fluorophenyl)-6-((1-propyl-1H-pyrazol-4-yl)sulfonyl)-4,4a,5,6,7,8-hexahydro-1H-pyrazolo[3,4-g]isoquinolin-4a-yl)(thiazol-4-yl)methanone] were > 9.30 and > 7.70.
With `COc1ccc(S(=O)(=O)N2CCC3=Cc4c(cnn4-c4ccc(F)cc4)C[C@]3(C(=O)c3ccccn3)C2)cc1F` [Example 11D, (R)-(6-((3-fluoro-4-methoxyphenyl)sulfonyl)-1-(4-fluorophenyl)-4,4a,5,6,7,8-hexahydro-1H-pyrazolo[3,4-g]isoquinolin-4a-yl)(pyridin-2-yl)methanone], the pKi on human recombinant GR (setting [2]) is > 9.30; in test [1] (setting [3]) it was > 7.70.
Taken in the same sequence, the figures for `Cc1ccc(S(=O)(=O)N2CCC3=Cc4c(cnn4-c4ccc(F)cc4)C[C@]3(C(=O)c3ccccn3)C2)c(F)c1` [Example 11E, (R)-(6-((2-fluoro-4-methylphenyl)sulfonyl)-1-(4-fluorophenyl)-4,4a,5,6,7,8-hexahydro-1H-pyrazolo[3,4-g]isoquinolin-4a-yl)(pyridin-2-yl)methanone] were > 9.30 and 7.00 to 7.70.
Taken in the same sequence, the figures for `Cc1cccc(S(=O)(=O)N2CCC3=Cc4c(cnn4-c4ccc(F)cc4)C[C@]3(C(=O)c3cscn3)C2)c1` [Example 11F, (R)-(1-(4-fluorophenyl)-6-(m-tolylsulfonyl)-4,4a,5,6,7,8-hexahydro-1H-pyrazolo [3,4-g]isoquinolin-4a-yl)(thiazol-4-yl)methanone] were > 9.30 and 7.00 to 7.70.
As for `N#Cc1cccc(S(=O)(=O)N2CCC3=Cc4c(cnn4-c4ccc(F)cc4)C[C@]3(C(=O)c3ccccn3)C2)c1` [Example 11G, (R)-3-((1-(4-fluorophenyl)-4a-picolinoyl-4a,5,7,8-tetrahydro-1H-pyrazolo[3,4-g]isoquinolin-6 (4H)-yl)sulfonyl)benzonitrile], the results for the pKi (on human recombinant GR; in test [1]) were > 9.30 and > 7.70, respectively.
For the compound `O=C(c1ccccn1)[C@]12Cc3cnn(-c4ccc(F)cc4)c3C=C1CCN(S(=O)(=O)c1ccc(OC(F)F)cc1)C2` [Example 11H, (R)-(6-((4-(difluoromethoxy)phenyl)sulfonyl)-1-(4-fluorophenyl)-4,4a,5,6,7,8-hexahydro-1H-pyrazolo[3,4-g]isoquinolin-4a-yl)(pyridin-2-yl)methanone], the pKi at human recombinant GR (setting [2]) is > 9.30; in test [1] (setting [3]), > 7.70.
`O=C(c1ccccn1)[C@]12Cc3cnn(-c4ccc(F)cc4)c3C=C1CCN(S(=O)(=O)c1cccc(OC(F)(F)F)c1)C2` [Example 11I, (R)-(1-(4-fluorophenyl)-6-((3-(trifluoromethoxy)phenyl)sulfonyl)-4,4a,5,6,7,8-hexahydro-1H-pyrazolo[3,4-g]isoquinolin-4a-yl)(pyridin-2-yl)methanone]: the pKi at human recombinant GR (setting [2]) is > 9.30; in test [1] (setting [3]), > 7.70.
For the compound `O=C(c1ccccn1)[C@]12Cc3cnn(-c4ccc(F)cc4)c3C=C1CCN(S(=O)(=O)c1cc(F)cc(F)c1)C2` [Example 11J, (R)-(6-((3,5-difluorophenyl)sulfonyl)-1-(4-fluorophenyl)-4,4a,5,6,7,8-hexahydro-1H-pyrazolo[3,4-g]isoquinolin-4a-yl)(pyridin-2-yl)methanone], the figures for the pKi (on human recombinant GR (setting [2]); in test [1] (setting [3])) were > 9.30 and > 7.70, respectively.
As for `Cc1ccc(S(=O)(=O)N2CCC3=Cc4c(cnn4-c4ccc(F)cc4)C[C@]3(C(=O)c3cscn3)C2)cc1` [Example 11K, (R)-(1-(4-fluorophenyl)-6-tosyl-4,4a,5,6,7,8-hexahydro-1H-pyrazolo[3,4-g]isoquinolin-4a-yl)(thiazol-4-yl)methanone], the pKi is > 9.30 at human recombinant GR (setting [2]) and > 7.70 in test [1] (setting [3]).
For the compound `O=C(c1ccccn1)[C@]12Cc3cnn(-c4ccc(F)cc4)c3C=C1CCN(S(=O)(=O)c1cccc(OC(F)F)c1)C2` [Example 11L, (R)-(6-((3-(difluoromethoxy)phenyl)sulfonyl)-1-(4-fluorophenyl)-4,4a,5,6,7,8-hexahydro-1H-pyrazolo[3,4-g]isoquinolin-4a-yl)(pyridin-2-yl)methanone], the pKi was > 9.30 at human recombinant GR (setting [2]) and > 7.70 in test [1] (setting [3]).
As to `Cc1ccc(S(=O)(=O)N2CCC3=Cc4c(cnn4-c4ccc(F)cc4)C[C@]3(C(=O)c3ccccn3)C2)cc1C` [Example 11M, (R)-(6-((3,4-dimethylphenyl)sulfonyl)-1-(4-fluorophenyl)-4,4a,5,6,7,8-hexahydro-1H-pyrazolo[3,4-g]isoquinolin-4a-yl)(pyridin-2-yl)methanone], the pKi is > 9.30 at human recombinant GR (setting [2]) and > 7.70 in test [1] (setting [3]).
Consider `Cc1cc(C)cc(S(=O)(=O)N2CCC3=Cc4c(cnn4-c4ccc(F)cc4)C[C@]3(C(=O)c3ccccn3)C2)c1` [Example 11N, (R)-(6-((3,5-dimethylphenyl)sulfonyl)-1-(4-fluorophenyl)-4,4a,5,6,7,8-hexahydro-1H-pyrazolo[3,4-g]isoquinolin-4a-yl)(pyridin-2-yl)methanone], for which the pKi at human recombinant GR (setting [2]) is > 9.30; in test [1] (setting [3]) it was > 7.70.
Taken in the same sequence, the figures for `Cc1cccc(S(=O)(=O)N2CCC3=Cc4c(cnn4-c4ccc(F)cc4)C[C@]3(C(=O)c3ccccn3)C2)n1` [Example 11O, (R)-(1-(4-fluorophenyl)-6-((6-methylpyridin-2-yl)sulfonyl)-4,4a,5,6,7,8-hexahydro-1H-pyrazolo[3,4-g]isoquinolin-4a-yl)(pyridin-2-yl)methanone] were > 9.30 and > 7.70.
Regarding `O=C(c1ccccn1)[C@]12Cc3cnn(-c4ccc(F)cc4)c3C=C1CCN(S(=O)(=O)c1ccc(F)c(F)c1)C2` [Example 11P, (R)-(6-((3,4-difluorophenyl)sulfonyl)-1-(4-fluorophenyl)-4,4a,5,6,7,8-hexahydro-1H-pyrazolo[3,4-g]isoquinolin-4a-yl)(pyridin-2-yl)methanone], the pKi was > 9.30 at human recombinant GR and > 7.70 in test [1].
On to `O=C(c1ccccn1)[C@]12Cc3cnn(-c4ccc(F)cc4)c3C=C1CCN(S(=O)(=O)c1cc(F)c(F)c(F)c1)C2` [Example 11Q, (R)-(1-(4-fluorophenyl)-6-((3,4,5-trifluorophenyl)sulfonyl)-4,4a,5,6,7,8-hexahydro-1H-pyrazolo[3,4-g]isoquinolin-4a-yl)(pyridin-2-yl)methanone], for which the pKi was > 9.30 at human recombinant GR (setting [2]) and > 7.70 in test [1] (setting [3]).
Consider `O=C(c1ccccn1)[C@]12Cc3cnn(-c4ccc(F)cc4)c3C=C1CCN(S(=O)(=O)c1ccc(F)c(Cl)c1)C2` [Example 11R, (R)-(6-((3-chloro-4-fluorophenyl)sulfonyl)-1-(4-fluorophenyl)-4,4a,5,6,7,8-hexahydro-1H-pyrazolo[3,4-g]isoquinolin-4a-yl)(pyridin-2-yl)methanone], for which the pKi on human recombinant GR (setting [2]) was > 9.30; in test [1] (setting [3]), > 7.70.
Regarding `Cc1ccnc(C(=O)[C@]23Cc4cnn(-c5ccc(F)cc5)c4C=C2CCN(S(=O)(=O)c2cccc(C#N)c2)C3)c1` [Example 11S, (R)-3-((1-(4-fluorophenyl)-4a-(4-methylpicolinoyl)-4a,5,7,8-tetrahydro-1H-pyrazolo[3,4-g]isoquinolin-6 (4H)-yl)sulfonyl)benzonitrile], the values for the pKi (at human recombinant GR (setting [2]); in test [1] (setting [3])) were > 9.30 and > 7.70, respectively.
Taken in the same sequence, the figures for `Cc1ccnc(C(=O)[C@]23Cc4cnn(-c5ccc(F)cc5)c4C=C2CCN(S(=O)(=O)c2cnn(C)c2)C3)c1` [Example 11T, (R)-(1-(4-fluorophenyl)-6-((1-methyl-1H-pyrazol-4-yl)sulfonyl)-4,4a,5,6,7,8-hexahydro-1H-pyrazolo[3,4-g]isoquinolin-4a-yl)(4-methylpyridin-2-yl)methanone] were > 9.30 and > 7.70.
For the compound `Cc1ccnc(C(=O)[C@]23Cc4cnn(-c5ccc(F)cc5)c4C=C2CCN(S(=O)(=O)c2ccc(F)c(F)c2)C3)c1` [Example 11U, (R)-(6-((3,4-difluorophenyl)sulfonyl)-1-(4-fluorophenyl)-4,4a,5,6,7,8-hexahydro-1H-pyrazolo[3,4-g]isoquinolin-4a-yl)(4-methylpyridin-2-yl)methanone], the pKi at human recombinant GR (setting [2]) was > 9.30; in test [1] (setting [3]), > 7.70.
